# “Also recorded” adds a separate entry of the source.
# Experiments:
# Type in all cases: in vivo, human
# [1] = test system: recurrent depression patient; assay: Case report: recurrent depression, switched to oral zuclopenthixol; conditions: for outcome under previous antidepressants: appropriate doses, sufficient duration, compliance ascertained
# From the text: Recurrent depressive patient is defined as a patient experiencing two or more successive major depressive episodes that are separated by at least two months of not experiencing adequate symptoms of depression to qualify for major depressive disorder (DSM-IV).
# Subject diagnosed with recurrent depression for the first time. […] Compliance with treatment was ascertained. […] After 2 years, the patient had still not relapsed.
# [2] = test system: naïve schizophrenic patient; assay: Case report: naïve schizophrenic patient given zuclopenthixol as first antipsychotic; conditions: 50 mg p. o. per day
# From the text: Naïve schizophrenic patient is a schizophrenic patient who had never been treated with an antipsychotic agent.
# After a period of 5 years of treatment, the patient had still not relapsed.
# [3] = test system: therapy resistant bipolar disorder patient; assay: Case reports: therapy resistant bipolar disorder, prescribed oral zuclopenthixol; conditions: for response to previous treatments: appropriate doses, sufficient duration, compliance ascertained
# From the text: Resistant bipolar disorder patient is defined as a patient not responding to an appropriate pharmacological treatment.
# Case 1. Subject diagnosed with therapy resistant bipolar disorder I presented as having manic state. They had been diagnosed for the first time. […] Compliance with treatment was ascertained. They were then prescribed oral zuclopenthixol. Before initiating oral zuclopenthixol treatment, the patient was considered as “among the most extremely ill patients”. After 8 weeks of treatment with zuclopenthixol, the patient was evaluated as having “much improved”.
# Case 2. Subject diagnosed with therapy resistant bipolar disorder 11 presented with depressive symptoms. They had been diagnosed for the first time. […] Compliance with treatment was ascertained. They were then prescribed oral zuclopenthixol. Before initiating oral zuclopenthixol treatment, the patient was considered as “markedly ill”.
# [4] = test system: therapy refractory schizophrenic patient; assay: Case report: therapy refractory schizophrenia, switched to oral zuclopenthixol
# From the text: Subject two diagnosed with therapy refractory schizophrenia for the first time The patient had been treated with appropriate doses and for sufficient duration with oral aripiprazole, oral loxapine and oral olanzapine at appropriate doses and for sufficient duration. Compliance with treatment was ascertained. […] The patient was then switched to oral zuclopenthixol.
# [5] = test system: therapy resistant depression patient; assay: Case report: therapy resistant depression, switched to oral zuclopenthixol; conditions: for response to previous antidepressants: appropriate doses, sufficient duration
# From the text: Resistant depression patient is defined as a patient not responding to an appropriate pharmacological treatment.
# Subject one diagnosed with chronic depression for the first time. […] They were then switched to oral zuclopenthixol. Before initiating oral zuclopenthixol treatment, the patient was considered as “markedly ill”.
# [6] = test system: therapy resistant schizophrenic patient; assay: Case reports: therapy resistant schizophrenic patients switched to oral zuclopenthixol; conditions: for response to previous antipsychotic agents: Case 1, oral, successive, appropriate doses and sufficient duration, compliance controlled
# From the text: Therapy resistant schizophrenic patient is a schizophrenic patient who has tried two successive antipsychotic agents for a period of 6 weeks at an appropriate dosage with no significant symptomatic relief of symptoms and who was compliant to pharmacological treatment. This definition comprises determining relief of symptoms by measurement on a clinical scale such as PANSS (positive and negative […] scale). The relief should correspond to a reduction of the PANSS scale of at least 20% after a period of 6 weeks treatment of an appropriate dosage. Lack of relief of symptoms should be assessed prospectively and should not be documented on the basis of historical information. Compliance to treatment should be documented through a third party such as nurse or care giver. Lack of compliance is often a reason for unsatisfactory outcome of schizophrenia therapy; if compliance is not documented the diagnosis of therapy resistant schizophrenia cannot be ascertained. Appropriate dosage is defined as an equivalent chlorpromazine of 400-700 mg per day.
# Case 1. […] Compliance to treatment was ascertained. Before being given zuclopenthixol, the patient presented severe debilitating schizophrenic symptoms.
# Case 2. Subject diagnosed with therapy resistant schizophrenia for the first time. […] Compliance with treatment was ascertained. The patient was then switched to oral zuclopenthixol. Before initiating zuclopenthixol treatment, the patient was considered as “markedly ill”.
# Case 3. Subject diagnosed with therapy resistant schizophrenia for the first time. […] Compliance with treatment was ascertained. The patient was then switched to oral zuclopenthixol. Before initiating zuclopenthixol treatment, the patient was considered as “among the most extremely ill patients”. After 8 weeks of treatment with zuclopenthixol, the patient was evaluated as having “much improved”, as confirmed by C.G.I. and P.A.N.S.S.
# Case 4. Subject diagnosed with therapy resistant schizophrenia for the first time. The patient had been treated with appropriate doses and for sufficient duration with the following antipsychotics: oral risperidone, oral aripiprazole, oral loxapine, and oral olanzapine. Compliance with treatment was ascertained. The patient was then switched to oral zuclopenthixol. Before initiating zuclopenthixol treatment, the patient was considered as “severely ill”. After 8 weeks of treatment with zuclopenthixol, the patient was evaluated as having “much improved”, as confirmed by C.G.I. and P.A.N.S.S.
# Case 5. Subject diagnosed with therapy resistant schizophrenia for the first time. […] The patient was then switched to oral zuclopenthixol. […] After 8 weeks of treatment with zuclopenthixol, the patient was evaluated as having “much improved”, as confirmed by C.G.I. and P.A.N.S.S.
# [7] = person two, after 8 weeks of treatment
# [8] = person one, after 8 weeks of treatment
smiles,measurement,setting,value
CNCCC(Oc1ccc(C(F)(F)F)cc1)c1ccccc1 (stereo not shown) [fluoxetine],outcome under previous antidepressants,[1],regularly experiencing new episodes of depression
"Cl.Cl.OCCN1CCN(CC/C=C2/c3ccccc3Sc3ccc(Cl)cc32)CC1 [zuclopenthixol, 4-[(3Z)-3-(2-chloro-9H-thioxanthen-9-ylidene)propyl]-1-piperazineethanol dihydrochloride]",outcome of first antipsychotic treatment,[2],successful
same,period of treatment without relapse,[2],≥ 5 years
same,evaluation of improvement,"[3]; after 8 weeks of treatment, Case 1 bipolar I manic state, Case 2 depressive symptoms, dihydrochloride",much improved; also recorded: very much improved
same,"evaluation of improvement, confirmed by C.G.I. and P.A.N.S.S.",[4]; [7],much improved
same,remission,[4]; [7],achieve remission
same,period without relapse,[1]; person,≥ 2 years
same,response to treatment,[1]; person,marked response
same,"evaluation of improvement, confirmed by C.G.I.",[5]; [8],much improved
same,reduction of depression on the Hamilton Depression Scale,[5]; [8],marked response
same,effect on schizophrenic symptoms,"[6]; Case 1, patient, exclusively oral zuclopenthixol, soon after start of treatment",major relief of schizophrenic symptoms
same,"evaluation of improvement, confirmed by C.G.I. and P.A.N.S.S.","[6]; Cases 2-5, oral, after 8 weeks of treatment, dihydrochloride",very much improved; also recorded: much improved
Cc1nc2n(c(=O)c1CCN1CCC(c3noc4cc(F)ccc34)CC1)CCCC2 [risperidone],response to previous antipsychotic agents,[6],did not respond
CN(C)CCC=C1c2ccccc2CCc2ccccc21 [amytriptiline],outcome under previous antidepressants,[1],regularly experiencing new episodes of depression
same,response to previous antidepressants,[5],without satisfactory response
CN[C@H]1CC[C@@H](c2ccc(Cl)c(Cl)c2)c2ccccc21 [sertraline],response to previous treatments,[3],without satisfactory response
same,response to previous antidepressants,[5],without satisfactory response
Fc1ccc([C@@H]2CCNC[C@H]2COc2ccc3c(c2)OCO3)cc1 [paroxetine],outcome under previous antidepressants,[1],regularly experiencing new episodes of depression
same,response to previous antidepressants,[5],without satisfactory response
O=C1CCc2ccc(OCCCCN3CCN(c4cccc(Cl)c4Cl)CC3)cc2N1 [aripiprazole],response to previous antipsychotics,"[4]; appropriate doses, sufficient duration, significant troublesome residual symptoms remained",significant relief of symptoms
O=C(CCCN1CCC(O)(c2ccc(Cl)cc2)CC1)c1ccc(F)cc1 [haloperidol],response to previous antipsychotic agents,[6],did not respond
Nc1nnc(-c2cccc(Cl)c2Cl)c(N)n1 [lamotrigine],response to previous treatments,[3],without satisfactory response

# Source: US20080139573A1, “Treatment of resistant Schizophrenia and other CNS disorders” (Copharm, priority 2006, published 2008)
